According to ChEMBL document CHEMBL4038293, “Synthesis and SAR studies of 3,6-disubstituted indazole derivatives as potent hepcidin production inhibitors” (Bioorg Med Chem Lett, 2017):
Calls of active or inactive are those of the source. No cut-off for these calls is given here.

species: Homo sapiens; assay: Inhibition of BMP6/hemojuvelin signalling pathway in human HepG2 cells assessed as reduction in hepcidin mRNA expression at 30 uM; format: cell-based; settings: not given

Compound | inhibition [%]
O=C(Nc1n[nH]c2cccc(-c3ccccc3)c12)C1CC1 | 8
O=C(Nc1n[nH]c2cc(-c3ccccc3)ccc12)C1CC1 | 23
O=C(Nc1n[nH]c2ccc(-c3ccccc3)cc12)C1CC1 | -4

system: not listed separately; assay: Tmax in C57BL/6J mouse at 30 mg/kg, ip; format: ADME, organism-based; settings: in vivo

Tmax [h] | Compound
1.33 | O=C(Nc1n[nH]c2cc(-c3ccc(O)cc3)ccc12)c1ccc(OCCN2CCOCC2)cc1

system: not listed separately; assay: Metabolic stability in mouse liver microsomes assessed as compound remaining at 0.5 mg/mL after 0.5 hrs; format: ADME, microsome; settings: read-out: Stability

remaining at 0.5 h [%] | Compound
89 | O=C(Nc1n[nH]c2cc(-c3ccc(O)cc3)ccc12)c1ccc(OCCN2CCOCC2)cc1

system: not listed separately; assay: AUC in C57BL/6J mouse at 30 mg/kg, ip; format: ADME, organism-based; settings: in vivo

AUC [µg·h/mL] | Compound
6.93 | O=C(Nc1n[nH]c2cc(-c3ccc(O)cc3)ccc12)c1ccc(OCCN2CCOCC2)cc1

system: not listed separately; assay: Lipophilicity, log D of the compound; format: physicochemical; settings: octanol/water

logD | Compound
3.4 | O=C(Nc1n[nH]c2cc(-c3ccc(O)cc3)ccc12)c1ccc(OCCN2CCOCC2)cc1

system: not listed separately; assay: Inhibition of BMP6/hemojuvelin signalling pathway in human HepG2 cells assessed as reduction in hepcidin mRNA expression; format: cell-based; settings: not given

Compound | IC50 [µM]
COc1ccc(C(=O)Nc2n[nH]c3cc(-c4ccc(O)cc4)ccc23)cc1 | 0.42
CN(C)c1ccc(C(=O)Nc2n[nH]c3cc(-c4ccc(O)cc4)ccc23)cc1 | 0.33
O=C(Nc1n[nH]c2cc(-c3ccc(O)cc3)ccc12)c1ccc(OCCN2CCCCC2)cc1 | 0.12
COc1cccc(C(=O)Nc2n[nH]c3cc(-c4ccc(O)cc4)ccc23)c1 | 0.7
O=C(NC1CC1)c1n[nH]c2cc(-c3ccc(O)cc3)ccc12 | 4.2
CN1CCN(c2ccc(C(=O)Nc3n[nH]c4cc(-c5ccc(O)cc5)ccc34)cc2)CC1 | 0.085
CC(=O)Nc1n[nH]c2cc(-c3ccc(O)cc3)ccc12 | 1.1
COC(=O)c1ccc(C(=O)Nc2n[nH]c3cc(-c4ccc(O)cc4)ccc23)cc1 | 1.1
O=C(Nc1n[nH]c2cc(-c3ccc(O)cc3)ccc12)C1CC1 | 0.4
O=C(Nc1n[nH]c2cc(-c3ccc(O)cc3)ccc12)c1ccccc1 | 0.47
O=C(Nc1n[nH]c2cc(-c3ccc(O)cc3)ccc12)c1ccc(Cl)cc1 | 0.98

Next, values leading:

IC50 [µM] | Compound
1 | Nc1n[nH]c2cc(-c3ccc(O)cc3)ccc12
1.4 | O=C(Nc1n[nH]c2cc(-c3ccc(CO)cc3)ccc12)C1CC1
> 30 | COc1ccccc1C(=O)Nc1n[nH]c2cc(-c3ccc(O)cc3)ccc12
4.5 | Nc1ccc(-c2ccc3c(NC(=O)C4CC4)n[nH]c3c2)cc1
> 30 | O=C(Nc1n[nH]c2cc(C3=CCC(O)CC3)ccc12)C1CC1 (centres undefined)
> 10 | O=S(=O)(Nc1n[nH]c2cc(-c3ccc(O)cc3)ccc12)C1CC1
> 30 | O=C(Nc1n[nH]c2cc(Cc3ccc(O)cc3)ccc12)C1CC1
> 10 | O=C(O)c1ccc(-c2ccc3c(NC(=O)C4CC4)n[nH]c3c2)cc1
0.93 | O=C(Nc1n[nH]c2cc(-c3ccc(O)cc3)ccc12)C1CCCCC1
1.6 | Oc1ccc(-c2ccc3c(NCC4CC4)n[nH]c3c2)cc1
0.16 | CN(C)CCOc1ccc(C(=O)Nc2n[nH]c3cc(-c4ccc(O)cc4)ccc23)cc1
3.1 | O=C(Nc1n[nH]c2ccc(-c3ccc4c(c3)CNC4)cc12)C1CC1
4.9 | O=C(Nc1n[nH]c2cc(-c3cccc(O)c3)ccc12)C1CC1
> 3 | Oc1ccc(-c2ccc3cn[nH]c3c2)cc1
> 30 | O=C(Nc1[nH]nc2cc(-c3ccc(O)nc3)ccc12)C1CC1
0.13 | O=C(Nc1n[nH]c2cc(-c3ccc(O)cc3)ccc12)c1ccc(OCCN2CCOCC2)cc1
> 30 | CS(=O)(=O)Nc1ccc(-c2ccc3c(NC(=O)C4CC4)n[nH]c3c2)cc1
0.94 | O=C(Nc1n[nH]c2cc(-c3ccc(O)cc3)ccc12)NC1CC1
> 30 | O=C(Nc1n[nH]c2cc(-c3ccccc3O)ccc12)C1CC1

system: Mus musculus; assay: Anti-inflammatory activity in C57BL/6J mouse assessed as reduction in IL-6 induced serum hepcidin level at 30 mg/kg, ip pretreated for 30 mins followed by IL-6 challenge measured after 4 hrs; format: functional, organism-based; settings: not given

Compound | Activity
O=C(Nc1n[nH]c2cc(-c3ccc(O)cc3)ccc12)c1ccc(OCCN2CCOCC2)cc1 | Active

system: not listed separately; assay: Cmax in C57BL/6J mouse at 30 mg/kg, ip; format: ADME, organism-based; parameters: dose 30 mg/kg, route intraperitoneal; settings: in vivo

Cmax [µg/mL] | Compound
2.64 | O=C(Nc1n[nH]c2cc(-c3ccc(O)cc3)ccc12)c1ccc(OCCN2CCOCC2)cc1
